According to PMC6804243, “Small-Molecule Inhibition of UBE2T/FANCL-Mediated Ubiquitylation in the Fanconi Anemia Pathway” (ACS Chemical Biology, 2019):
Entries after “also recorded” stand apart in the source; their conditions may differ. Where two headings read alike, the source gives them in different places.

Tests used:
UBE1 = system: T1, UBE1; assay: Gel-based ubiquitylation assay (UBE2T/GST-FANCLRING), autoubiquitylation of UBE1; type: biochemical; conditions: compound 100 μM; Western blot probed for biotin
T1 construct: purchased Boston Biochem

UBE2D1 / GST-FANCLRING = system: T2, UBE2D1 / GST-FANCLRING; assay: Gel-based ubiquitylation assay, E2 = UBE2D1, E3 = GST-FANCLRING; type: biochemical; conditions: 30 min at 37 °C, Western blot
T2 construct: the RING domain (residues 275–375) of the E3 FANCL (FANCLRING); His6 (N); made in house; host or cells: E. coli Rosetta (DE3)
Procedure: (§1) Figure 2 Gel-based ubiquitylation assays with confirmed HTRF hits. […] Western blots (WB) probed for GST or biotin as labeled. Reactions contained 20 nM His6-UBE1, 50 nM E2, 250 nM GST-E3, 500 nM biotinylated ubiquitin: (a) E2 = UBE2T, E3 = GST-FANCLRING, 30 min of reaction at 37 °C; (b) E2 = UBE2D1, E3 = GST-FANCLRING, 30 min of reaction at 37 °C; and (c) E2 = UBE2D1, E3 = GST-RNF8, 10 min of reaction at 37 °C.
(§2) In order to explore the selectivity of CU1, CU2, CU9, CU10, and CU12, we conducted a counter-screen against other E2 and E3 combinations. Since members of the UBE2D family of E2s are known to ubiquitylate multiple substrates in vitro,[13] a ubiquitylation assay featuring UBE2D1 and GST-FANCLRING was performed. With UBE2D1, multiple ubiquitylated GST-FANCLRING species could be observed (Figure 2b).
(§3) Purified protein was concentrated using a Vivaspin-6 concentrator with a 10 kDa MW cut-off (Vivascience) and flash-frozen in small aliquots for storage at […]
(§4) Cy5 labelling of ubiquitin. To a 5 mg/mL solution of recombinant human ubiquitin (Boston Biochem) in 0.1 M NaHCO3 pH 8.3, was added a 4-fold molar excess of Cyanine5 NHS ester (Lumiprobe). The reaction was incubated at 23 °C for 4 hours in the dark. The protein was separated from unreacted dye by passage through a PD-10 desalting column (GE Healthcare) equilibrated with PBS. Purified protein was concentrated using a Vivaspin-6 concentrator with a 3 kDa MW cut-off (Vivascience) and flash-frozen in small aliquots for storage […]
(§5) Homogeneous Time-Resolved Fluorescence (HTRF) Assay. GST-FANCLRING (200 nM) was incubated with anti-GST Tb (CisBio, #61GSTTL) (2.5 ng final) at room temperature for 30 minutes in assay buffer (50 mM Tris-HCl pH 8.0, 1 mM TCEP, 5 mM MgCl2, 0.005% Tween-20). Meanwhile, 10 μL of UBE2T in assay buffer (or assay buffer alone for no enzyme controls) was incubated in a white 384-well plate (Corning) with 20 nL DMSO or compound in DMSO. After 30 minutes, the GST-RINGRING solution was added to an equal volume solution containing His-UBE1 (Boston Biochem) (16 nM), Cy5-ubiquitin (400 nM), ATP (0.8 mM) in assay buffer. 10 μL of this solution was immediately added to each well of the 384 -well plate containing UBE2T or buffer. F inal concentrations: His -UBE1 (4 nM), UBE2T (6 nM), GST -RINGRING (50 nM), Cy5-ubiquitin (100 nM), ATP (0.2 mM), compound (10 or 20 μM) in 0.1 %
(§6) (v/v) DMSO. After a 10 minute incubation at 23 °C, 5 µL of a 50 mM EDTA solution were added to each well to stop the reaction. Signal was measured at λEx 340 nm and λEm 665 nm and 620 nm using a PHERAstar FS plate reader
(§7) (BMG Labtech). A ratio was calculated as [λEm(665)/λEm(620)] × 104 for each well and this was used to determine the percent inhibition for test compounds.
(§8) Gel-based ubiquitylation assays. Assays were carried out in a total volume of 10 µL containing 20 nM His6-UBE1 (Boston Biochem), 50 nM UBE2T, 250 nM GST-E3 and 500 nM biotinylated ubiquitin (Boston Biochem) in buffer (50 […]
(§9) Reaction mixtures were incubated for the indicated time at 37 °C and stopped by the addition of 2X reducing SDS -PAGE sample buffer, separated on NuPAGE Novex 4 –12% Bis/Tris gradient gels (Invitrogen) and visualized by Western blotting using the indicated antibodies (Table S3).
Cell culture. […]

UBE2T = system: T3, UBE2T; assay: Gel-based ubiquitylation assay (UBE2T/GST-FANCLRING), blot probed for UBE2T; type: biochemical; conditions: compound 100 μM; Western blot probed for UBE2T
T3 construct: His6 (N); made in house; host or cells: E. coli Rosetta (DE3)

UBE2T / GST-FANCLRING = system: T4, UBE2T / GST-FANCLRING; assay: Gel-based ubiquitylation assay, E2 = UBE2T, E3 = GST-FANCLRING; type: biochemical; conditions: compound 100 μM, 30 min at 37 °C, Western blot
T4 construct: the RING domain (residues 275–375) of the E3 FANCL (FANCLRING); His6 (N); made in house; host or cells: E. coli Rosetta (DE3)

[1] = target: T5, UBE2T/FANCLRING (ubiquitylation of GST-FANCLRING) (Homo sapiens, UniProt Q9NW38); assay: biochemical
T5 sequence (Q9NW38 275-375 limits assumed): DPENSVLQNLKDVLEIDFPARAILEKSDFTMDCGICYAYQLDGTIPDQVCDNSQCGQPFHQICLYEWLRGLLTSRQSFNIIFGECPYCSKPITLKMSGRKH
Excerpt: To identify small-molecule inhibitors of the FA pathway, we developed a high-throughput screen (HTS) compatible assay based on the FA ubiquitylation cascade (see Figure 1a, as well as Figure S1 in the Supporting Information). Given the complexity of the full FA ubiquitylation cascade, we constructed a simplified ubiquitylation reaction that would be robust for HTS purposes yet still provide many relevant protein species for small molecules to interact with. The recombinant protein assay developed used homogeneous time-resolved fluorescence (HTRF) and contained Cy5-labeled ubiquitin, the E1 enzyme UBE1, the E2 enzyme UBE2T, and the RING domain (residues 275–375) of the E3 FANCL (FANCLRING). FANCLRING was used as a surrogate substrate for ubiquitylation in the absence of the FA core and FANCD2/FANCI complexes.
Figure 1 Screening for inhibitors of the FA pathway. (a) Schematic of the HTRF ubiquitylation assay. Ubiquitylation of GST-tagged E3 (FANCLRING) by the E2 (UBE2T) places Cy5-labeled ubiquitin in close proximity to the anti-GST Tb cryptate. Excitation of the Tb cryptate donor results in FRET to the Cy5 acceptor. Simultaneous monitoring of the donor emission (620 nm) and acceptor emission (665 nm) allows for determination of the 665/620 ratio. (b) HTRF screen results showing average inhibition (n = 2) produced by compounds at 20 μM (in-house diversity library; 10 111 compounds) and 10 μM (Selleckchem epigenetic library; 119 compounds). Numbers given in parentheses represent the number of compounds per inhibition threshold.
as §3, §4, §5, §6, §7
Gel-based ubiquitylation assays. Assays were carried out in a total volume of 10 µL containing 20 nM His6-UBE1 (Boston Biochem), 50 nM UBE2T, 250 nM GST-E3 and 500 nM biotinylated ubiquitin (Boston Biochem) in buffer (50

UBE2D1 / GST-RNF8 = system: T6, UBE2D1 / GST-RNF8; assay: Gel-based ubiquitylation assay, E2 = UBE2D1, E3 = GST-RNF8; type: biochemical; conditions: 10 min at 37 °C, Western blot
T6 construct: His6 (N); made in house; host or cells: E. coli Rosetta (DE3)
Procedure: as §1
A further ubiquitylation assay was performed with an alternative E3, RNF8, which also plays important roles in the DDR.[14] In contrast to GST-FANCLRING, long polyubiquitin chains were attached to GST-RNF8 by UBE2D1 (Figure 2c).
as §3, §4, §5, §6, §7, §8, §9
Cell culture. U2OS cells were cultured at 37 °C in a humidified atmosphere and 5% (v/v) CO2 in Dulbecco's Modified Eagle Medium (DMEM; Sigma-Aldrich) supplemented with 10% (v/v) fetal bovine serum (FBS), 100 units/ml of penicillin, […] of streptomycin and 292 μg/mL L-glutamine.
Cell extract preparation and immunoblotting. U2OS cells were lysed in buffer containing 50 mM Tris-HCl pH 7.5, 2% SDS, 10 mM NEM, cocktail protease inhibitor (Roche) and phosphatase inhibitor cocktail followed by sonication 100 µg of extracts were boiled for 5 mins at 95 °C in 5X loading buffer and loaded onto NuPAGE Novex 4–12% Bis/Tris gradient gels
(Invitrogen), or NuPAGE Novex 3-8% Tris/Acetate gradient gels (Invitrogen) for detection of mUb-FANCD2. After separation the gels were transferred to PVDF and the membranes were blocked with Tris-buffered saline containing 0.1% (v/v) Tween-20 (TBST) and 5% (v/v) bovine serum albumin (BSA) and […]

UBE2D1 = system: T7, UBE2D1; assay: Gel-based ubiquitylation assay (UBE2D1/GST-FANCLRING), ubiquitylated UBE2D1 species; type: biochemical; conditions: E2 = UBE2D1, E3 = GST-FANCLRING; 30 min at 37 °C
T7 construct: His6 (N); made in house; host or cells: E. coli Rosetta (DE3)
Procedure: as §1, §2, §3
Cy5 labelling of ubiquitin. […]
Homogeneous Time-Resolved Fluorescence (HTRF) Assay. […]
(v/v) DMSO. […] Signal was measured at λEx 340 nm and λEm 665 nm and 620 nm using a PHERAstar FS plate reader
(BMG Labtech). A ratio was calculated as [λEm(665)/λEm(620)] × 104 for each well and this was used to determine the percent inhibition for test compounds. […]

`O=C(CCc1ccco1)NS(=O)(=O)c1cccc2ncccc12` [CU10] was tested, and the “autoubiquitylation of UBE1” value (UBE1) was “somewhat impaired the autoubiquitylation of UBE1”, the “ubiquitylation of GST-FANCLRING” value (UBE2D1 / GST-FANCLRING) was “essentially abolished the ubiquitylation of GST-FANCLRING” and the “ubiquitylation of UBE2T” value (UBE2T) was “prevented the ubiquitylation of UBE2T; also recorded: essentially completely inhibited”. For the same compound, the “ubiquitylation of GST-FANCLRING (mUb-GST-FANCLRING band)” value (UBE2T / GST-FANCLRING) was “no ubiquitylation of FANCLRING was observed”, the IC50 ([1]; library stock, 10-point dose-response, read-out: Primary screen IC50) was 10.9 µM and the LE ([1]; ligand efficiency = 1.4(–logIC50)/HAC) was 0.35. For the same compound, the IC50 ([1]; printed beside the structures in Figure S3, read-out: IC50 (Figure S3)) was 2.1 µM, the inhibition at 20 µM ([1]; read-out: Primary screen % Inhibition (20 M)) was 93.8% and the “ubiquitylation of GST-RNF8 and UBE2D1” value (UBE2D1 / GST-RNF8) was “appeared to inhibit the ubiquitylation of all species in the assay”. For the same compound, the “formation of ubiquitylated UBE2D1 species” value (UBE2D1) was “prevented the formation of any ubiquitylated UBE2D1 species”.
